{
  "source": "patent US20250018068A1",
  "about": "“4H-IMIDAZO[1,5-B]PYRAZOLE DERIVATIVES FOR DIAGNOSIS” (AC IMMUNE SA, priority 2021, published 2025)",
  "key": {"[1]": {"target": "T1, Abeta pathological aggregates (Homo sapiens, UniProt P05067)", "T1 construct": "Abeta pathological aggregates present in the human AD brain homogenates; from tissue; host or cells: human AD donor brain, Triton/sucrose-insoluble fraction", "T1 sequence (P05067 672-713 limits assumed)": "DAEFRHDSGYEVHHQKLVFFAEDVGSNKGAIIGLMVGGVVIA", "test": "Radiobinding competition assay on AD brain homogenates, displacement of [3H]-Abeta-Ref", "format": "binding", "description": "The procedure was adapted from the protocol described in Bagchi et al., 2013. Frozen tissue blocks from AD donors were thawed on ice and homogenized in high salt buffer (50 mM Tris-HCl pH 7.5, 0.75M NaCl, 5 mM EDTA) supplemented with protease inhibitors (Complete; Roche 11697498001) at 4° C. using a glass Dounce homogenizer. The homogenate was centrifuged at 100,000×g (38,000 RPM) in an ultracentrifuge (Beckman, XL100K) for one hour at 4° C. using a pre-cooled 70.1 rotor (Beckman, 342184). Pellets were resuspended in high salt buffer supplemented with 1% Triton X-100 and homogenized at 4° C. using a glass Dounce homogenizer. […]\nA fixed concentration of AD insoluble fraction was incubated with a tritiated reference Abeta ligand ([^3H]-Abeta-Ref) at 10 nM and increasing concentrations of non-radiolabelled example compound 1 in the range of […] to 2 μM for two hours at RT. […] The filters were analyzed on a Microbeta2 scintillation counter (PerkinElmer). Non-specific signal was determined with an excess of non-radiolabelled reference ligand (2 μM) and specific binding was calculated by subtracting the non-specific signal from the total signal. Competition was calculated as percent, where 0% was defined as the specific binding in the presence of vehicle and 100% as the values obtained in the presence of excess of the non-radiolabelled reference ligand. […]"}, "[2]": {"target": "T2, PD brain-derived alpha-synuclein aggregates (Homo sapiens, UniProt P37840)", "T2 construct": "from tissue; host or cells: human PD donor brain, sarkosyl-insoluble pellet", "test": "Micro-radiobinding competition assay for the determination of binding affinity", "conditions": "human PD brain-derived alpha-synuclein aggregates; for inhibition at 0.1 µM: read-out: Micro-radiobinding competition assay Competition at 100 nM (%); for inhibition at 1 µM: read-out: Micro-radiobinding competition assay Competition at 1 μM (%); for Ki: * = mean of two independent experiments, two donors", "description": "The procedure was adapted from the protocol described in Spillantini et al., 1998. Frozen tissue blocks from PD donors were thawed on ice and homogenized using a glass dounce homogenizer. The homogenate was then centrifuged at 11,000×g (12,700 RPM) in an ultracentrifuge (Beckman, XL100K) for 20 minutes at 4° C. using a pre-cooled 70.1 rotor (Beckman, 342184). Pellets were resuspended in extraction buffer [10 mM Tris-HCl pH 7.4, 10% sucrose, […], 1% protease inhibitor (Calbiochem 539131), 1 mM EGTA, 1% phosphatase inhibitor (Sigma P5726 and P0044)] and centrifuged at 15,000×g (14,800 RPM, a 70.1 Ti rotor) for 20 minutes at 4° C. Pellets were discarded and sarkosyl (20% stock solution, Sigma L7414) was added to the supernatants to a final concentration of 1% at room temperature for one hour. This solution was then centrifuged at 100,000×g (38,000 RPM, 70.1 Ti rotor) for one hour at 4° C. Pellets containing enriched alpha-synuclein aggregates were resuspended in PBS and stored at −80° C. until use.\nPD brain-derived alpha-synuclein aggregates were spotted onto microarray slides. The slides were incubated with [^3H]-alpha-synuclein reference at 6 nM or 20 nM and the example compounds (non-radiolabelled) at 1 μM and 100 nM. In some cases, the non-radiolabelled example compounds were further assessed for a range of different concentrations, varying from 0.05 nM to 2 μM. After incubation, slides were washed and scanned by a real-time autoradiography system (BeaQuant, ai4R). Quantification of the signal was performed by using the Beamage image analysis software (ai4R). Non-specific signal was determined with an excess of non-radiolabelled Example-1 (2 μM) and specific binding was calculated by subtracting the non-specific signal from the total signal. Competition was calculated as percent, where 0% was defined as the specific binding in the presence of vehicle and 100% as the values obtained in the presence of excess of the non-radiolabelled Example-1. Ki values were calculated in GraphPad Prism7 by applying a nonlinear regression curve fit using a one site, specific binding model. All measurements were performed with at least two technical replicates. For compounds tested in more than one experiment, the mean of the replicates or Ki values in independent experiments is reported.\nResults: Example compounds were assessed for their potency to compete with the binding of [^3H]-reference alpha-synuclein ligand to PD patient brain-derived alpha-synuclein aggregates. Results of the micro-radiobinding competition assay for the example compounds tested are shown in Table 3 as: % competition at 1 μM and 100 nM.\nTable 3: Assessment of binding affinity by micro-radiobinding competition assay on human PD brain-derived alpha-synuclein aggregates. Percent (%) competition over the tritiated [^3H]-Example-1 ligand in the presence of 1 μM and 100 nM of example compounds 1-9. Ki values are also shown for selected example compounds. *, mean of Ki values in two independent experiments using PD brain-derived homogenates from two different donors."}, "[3]": {"conditions": "100 nM non-radiolabelled compound, competition over tritiated [3H]-Example-1 ligand"}, "[4]": {"conditions": "1 μM non-radiolabelled compound, competition over tritiated [3H]-Example-1 ligand"}},
  "note": "Structures can show the parent of a compound that is named as a salt.",
  "data": [
    {"smiles": "O=C1N(c2cccnc2)Cc2cc(-c3ccc(N4CC[C@H](F)C4)nc3)nn21", "note": "[Example 1, (S)-2-(6-(3-fluoropyrrolidin-1-yl)pyridin-3-yl)-5-(pyridin-3-yl)-4H-imidazo[1,5-b]pyrazol-6(5H)-one hydrochloride]", "values": [
      {"measurement": "Ki", "setting": "[1]; displacement of [3H]-Abeta-Ref (10 nM) on AD brain-derived homogenates", "result": 360, "unit": "nM"},
      {"measurement": "Selectivity for alpha-synuclein over Abeta pathological aggregates", "setting": "[1]; human AD brain homogenates versus PD brain binding affinity", "result": "good selectivity"},
      {"measurement": "inhibition at 0.1 µM", "setting": "[2]; [3]", "result": 56, "unit": "%"},
      {"measurement": "inhibition at 1 µM", "setting": "[2]; [4]", "result": 91, "unit": "%"},
      {"measurement": "Ki", "setting": "[2]", "result": 69, "unit": "nM"}
    ]},
    {"smiles": "O=C1N(c2cccnc2)Cc2cc(-c3cnc(N4CC[C@H](F)C4)c(F)c3)nn21", "note": "[Example 13, (S)-2-(5-fluoro-6-(3-fluoropyrrolidin-1-yl)pyridin-3-yl)-5-(pyridin-3-yl)-4,5-dihydro-6H-imidazo[1,5-b]pyrazol-6-one hydrogen chloride salt]", "values": [
      {"measurement": "inhibition at 0.1 µM", "setting": "[2]; [3]", "result": 55, "unit": "%"},
      {"measurement": "inhibition at 1 µM", "setting": "[2]; [4]", "result": 71, "unit": "%"},
      {"measurement": "Ki", "setting": "[2]", "result": 101, "unit": "nM"}
    ]},
    {"smiles": "Cc1nc(N2CC[C@@H](F)C2)ccc1-c1cc2n(n1)C(=O)N(c1cccnc1)C2", "note": "[Example 14, (R)-2-(6-(3-fluoropyrrolidin-1-yl)-2-methylpyridin-3-yl)-5-(pyridin-3-yl)-4,5-dihydro-6H-imidazo[1,5-b]pyrazol-6-one hydrogen chloride salt]", "values": [
      {"measurement": "inhibition at 0.1 µM", "setting": "[2]; [3]", "result": 56, "unit": "%"},
      {"measurement": "inhibition at 1 µM", "setting": "[2]; [4]", "result": 85, "unit": "%"},
      {"measurement": "Ki", "setting": "[2]", "result": 80, "unit": "nM"}
    ]},
    {"smiles": "Cc1nc(N2CC[C@H](F)C2)ccc1-c1cc2n(n1)C(=O)N(c1cccnc1)C2", "note": "[Example 15, (S)-2-(6-(3-fluoropyrrolidin-1-yl)-2-methylpyridin-3-yl)-5-(pyridin-3-yl)-4,5-dihydro-6H-imidazo[1,5-b]pyrazol-6-onehydrogen chloride salt]", "values": [
      {"measurement": "inhibition at 0.1 µM", "setting": "[2]; [3]", "result": 48, "unit": "%"},
      {"measurement": "inhibition at 1 µM", "setting": "[2]; [4]", "result": 80, "unit": "%"},
      {"measurement": "Ki", "setting": "[2]", "result": 141, "unit": "nM"}
    ]},
    {"smiles": "O=C1N(c2cncs2)Cc2cc(-c3ccc(N4CC[C@H](F)C4)nc3)nn21", "note": "[Example 17, (S)-2-(6-(3-fluoropyrrolidin-1-yl)pyridin-3-yl)-5-(thiazol-5-yl)-4,5-dihydro-6H-imidazo[1,5-b]pyrazol-6-one hydrogen chloride salt]", "values": [
      {"measurement": "Micro-radiobinding competition assay Competition at 100 nM (%)", "setting": "[2]; [3]", "result": 66, "unit": "%"},
      {"measurement": "Micro-radiobinding competition assay Competition at 1 μM (%)", "setting": "[2]; [4]", "result": 95, "unit": "%"}
    ]},
    {"smiles": "Cc1ncc(N2Cc3cc(-c4ccc(N5CC[C@@H](F)C5)nc4)nn3C2=O)s1", "note": "[Example 18, (R)-2-(6-(3-fluoropyrrolidin-1-yl)pyridin-3-yl)-5-(2-methylthiazol-5-yl)-4,5-dihydro-6H-imidazo[1,5-b]pyrazol-6-one hydrogen chloride salt]", "values": [
      {"measurement": "inhibition at 0.1 µM", "setting": "[2]; [3]", "result": 51, "unit": "%"},
      {"measurement": "inhibition at 1 µM", "setting": "[2]; [4]", "result": 83, "unit": "%"},
      {"measurement": "Ki", "setting": "[2]", "result": 51, "unit": "nM"}
    ]},
    {"smiles": "Cc1ncc(N2Cc3cc(-c4ccc(N5CC[C@H](F)C5)nc4)nn3C2=O)s1", "note": "[Example 19, (S)-2-(6-(3-fluoropyrrolidin-1-yl)pyridin-3-yl)-5-(2-methylthiazol-5-yl)-4,5-dihydro-6H-imidazo[1,5-b]pyrazol-6-one hydrogen chloride salt]", "values": [
      {"measurement": "inhibition at 0.1 µM", "setting": "[2]; [3]", "result": 41, "unit": "%"},
      {"measurement": "inhibition at 1 µM", "setting": "[2]; [4]", "result": 78, "unit": "%"},
      {"measurement": "Ki", "setting": "[2]", "result": 65, "unit": "nM"}
    ]},
    {"smiles": "O=C1N(c2ccns2)Cc2cc(-c3ccc(N4CC[C@@H](F)C4)nc3)nn21", "note": "[Example 20, (R)-2-(6-(3-fluoropyrrolidin-1-yl)pyridin-3-yl)-5-(isothiazol-5-yl)-4,5-dihydro-6H-imidazo[1,5-b]pyrazol-6-one hydrogen chloride salt]", "values": [
      {"measurement": "inhibition at 0.1 µM", "setting": "[2]; [3]", "result": 85, "unit": "%"},
      {"measurement": "inhibition at 1 µM", "setting": "[2]; [4]", "result": 87, "unit": "%"}
    ]},
    {"smiles": "O=C1N(c2ccns2)Cc2cc(-c3ccc(N4CC[C@H](F)C4)nc3)nn21", "note": "[Example 21, (S)-2-(6-(3-fluoropyrrolidin-1-yl)pyridin-3-yl)-5-(isothiazol-5-yl)-4,5-dihydro-6H-imidazo[1,5-b]pyrazol-6-one hydrogen chloride salt]", "values": [
      {"measurement": "inhibition at 0.1 µM", "setting": "[2]; [3]", "result": 82, "unit": "%"},
      {"measurement": "inhibition at 1 µM", "setting": "[2]; [4]", "result": 90, "unit": "%"}
    ]},
    {"smiles": "Cn1cc(N2Cc3cc(-c4ccc(OCCF)nc4)nn3C2=O)cn1", "note": "[Example 22, 2-(6-(2-fluoroethoxy)pyridin-3-yl)-5-(1-methyl-1H-pyrazol-4-yl)-4,5-dihydro-6H-imidazo[1,5-b]pyrazol-6-one hydrogen chloride salt]", "values": [
      {"measurement": "inhibition at 0.1 µM", "setting": "[2]; [3]", "result": 45, "unit": "%"},
      {"measurement": "inhibition at 1 µM", "setting": "[2]; [4]", "result": 89, "unit": "%"}
    ]},
    {"smiles": "O=C1N(c2cncs2)Cc2cc(-c3ccc(OCCF)nc3)nn21", "note": "[Example 23, 2-(6-(2-fluoroethoxy)pyridin-3-yl)-5-(thiazol-5-yl)-4,5-dihydro-6H-imidazo [1,5-b] pyrazol-6-one hydrogen chloride salt]", "values": [
      {"measurement": "inhibition at 0.1 µM", "setting": "[2]; [3]", "result": 31, "unit": "%"},
      {"measurement": "inhibition at 1 µM", "setting": "[2]; [4]", "result": 82, "unit": "%"}
    ]}
  ]
}
